Assay results from ChEMBL document CHEMBL3885861, “Open TG-GATES”.

Organism: Rattus norvegicus
Test: Open TG-GATES - Regimen: Single
Format: toxicity, organism-based, Sprague-Dawley
Parameters: regimen Single, gender Male, age 6 weeks
Conditions: in vivo, iv, route intravenous injection; for KIDNEY_L / KIDNEY_R / KIDNEY_TOTAL: tissue Kidney; for LIVER: tissue Liver; for ALP / ALT / AST / BUN / CRE / DBIL / GLC / IP / K / PL / RALB / TBIL / TC / TG / TP / gamma-GTP / LDH / Na: tissue Plasma
[1] = 0 mg/kg, 3 h, dose level Control
[2] = 0 mg/kg, 3 h, tissue Blood, dose level Control
[3] = 0 mg/kg, 6 h, dose level Control
[4] = 0 mg/kg, 6 h, tissue Blood, dose level Control
[5] = 0 mg/kg, 9 h, dose level Control
[6] = 0 mg/kg, 9 h, tissue Blood, dose level Control
[7] = 0 mg/kg, 24 h, dose level Control
[8] = 0 mg/kg, 24 h, tissue Blood, dose level Control

Sequence: CARBOPLATIN
- TERMINAL_BW [1]: 198.4 g
- Bas [2]: 0%
- Eos [2]: 0.4%
- Fbg [2]: 277.4 mg/dL
- Lym [2]: 80%
- MCH [2]: 21.1 pg
- MCHC [2]: 32.1%
- MCV [2]: 65.9 fL
- Mono [2]: 2.2%
- Neu [2]: 16.2%
- PT [2]: 16 s
- Plat [2]: 125.4 x10_4/uL
- RBC [2]: 633.2 x10_4/ul
- Ret [2]: 6.4%
- WBC [2]: 107.8 x10_2/uL
- KIDNEY_L [1]: 0.9 g
- KIDNEY_R [1]: 0.9 g
- KIDNEY_TOTAL [1]: 1.8 g
- LIVER [1]: 9.1 g
- ALP [1]: 1848.6 IU/L
- ALT [1]: 47 IU/L
- AST [1]: 86.2 IU/L
- BUN [1]: 13.6 mg/dL
- CRE [1]: 0.2 mg/dL
- DBIL [1]: 0 mg/dL
- GLC [1]: 197.2 mg/dL
- IP [1]: 8.3 mg/dL
- K [1]: 3.9 meq/L
- PL [1]: 127.8 mg/dL
- RALB [1]: 3 g/dL
- TBIL [1]: 0.012 mg/dL
- TC [1]: 71.8 mg/dL
- TG [1]: 43 mg/dL
- TP [1]: 5.5 g/dL
- gamma-GTP [1]: 1.2 IU/L
- TERMINAL_BW [3]: 200.5 g
- APTT [4]: 24.3 s
- Bas [4]: 0%
- Eos [4]: 0.8%
- Fbg [4]: 274.2 mg/dL
- Lym [4]: 80.8%
- MCV [4]: 64 fL
- Mono [4]: 2.6%
- Neu [4]: 15.4%
- PT [4]: 16.1 s
- Plat [4]: 119.1 x10_4/uL
- RBC [4]: 645.6 x10_4/ul
- Ret [4]: 6.5%
- WBC [4]: 98 x10_2/uL
- KIDNEY_L [3]: 0.9 g
- KIDNEY_R [3]: 0.9 g
- KIDNEY_TOTAL [3]: 1.8 g
- LIVER [3]: 8.5 g
- ALP [3]: 1354.4 IU/L
- AST [3]: 77 IU/L
- BUN [3]: 11.4 mg/dL
- CRE [3]: 0.2 mg/dL
- DBIL [3]: 0 mg/dL
- GLC [3]: 180.6 mg/dL
- IP [3]: 9.3 mg/dL
- K [3]: 4.4 meq/L
- LDH [3]: 202.4 IU/L
- PL [3]: 128 mg/dL
- RALB [3]: 2.9 g/dL
- TBIL [3]: 0.01 mg/dL
- TC [3]: 74.2 mg/dL
- TG [3]: 74.2 mg/dL
- TP [3]: 5.3 g/dL
- gamma-GTP [3]: 1.4 IU/L
- TERMINAL_BW [5]: 195.2 g
- APTT [6]: 24.6 s
- Bas [6]: 0%
- Eos [6]: 0.6%
- Fbg [6]: 296.4 mg/dL
- Hb [6]: 13 g/dL
- Lym [6]: 77.2%
- MCHC [6]: 31.9%
- MCV [6]: 64.4 fL
- Mono [6]: 2%
- Neu [6]: 19.8%
- PT [6]: 16 s
- Plat [6]: 121.6 x10_4/uL
- RBC [6]: 635.2 x10_4/ul
- Ret [6]: 6.3%
- WBC [6]: 80.5 x10_2/uL
- KIDNEY_L [5]: 0.9 g
- KIDNEY_R [5]: 0.9 g
- KIDNEY_TOTAL [5]: 1.8 g
- LIVER [5]: 8.2 g
- ALP [5]: 1521.4 IU/L
- ALT [5]: 38.8 IU/L
- AST [5]: 75.2 IU/L
- CRE [5]: 0.2 mg/dL
- DBIL [5]: 0 mg/dL
- GLC [5]: 182.2 mg/dL
- IP [5]: 9.7 mg/dL
- K [5]: 4.3 meq/L
- LDH [5]: 155 IU/L
- Na [5]: 140.4 meq/L
- PL [5]: 123.6 mg/dL
- RALB [5]: 2.9 g/dL
- TBIL [5]: 0.008 mg/dL
- TC [5]: 72.4 mg/dL
- TG [5]: 57.2 mg/dL
- TP [5]: 5.3 g/dL
- gamma-GTP [5]: 1 IU/L
- TERMINAL_BW [7]: 214.9 g
- APTT [8]: 23.2 s
- Bas [8]: 0%
- Eos [8]: 1%
- Fbg [8]: 280.2 mg/dL
- Lym [8]: 82.8%
- MCHC [8]: 32.1%
- MCV [8]: 63 fL
- Mono [8]: 2.4%
- PT [8]: 16.6 s
- Plat [8]: 124.1 x10_4/uL
- RBC [8]: 648.4 x10_4/ul
- Ret [8]: 5.2%
- WBC [8]: 108.2 x10_2/uL
- KIDNEY_L [7]: 1 g
- KIDNEY_R [7]: 1 g
- KIDNEY_TOTAL [7]: 2 g
- LIVER [7]: 9.7 g
- ALP [7]: 1592.8 IU/L
- ALT [7]: 42.2 IU/L
- AST [7]: 73 IU/L
- BUN [7]: 16.6 mg/dL
- CRE [7]: 0.2 mg/dL
- DBIL [7]: 0 mg/dL
- GLC [7]: 183 mg/dL
- IP [7]: 7.2 mg/dL
- K [7]: 4.5 meq/L
- LDH [7]: 175 IU/L
- Na [7]: 140.4 meq/L
- PL [7]: 133.4 mg/dL
- RALB [7]: 2.9 g/dL
- TBIL [7]: 0.006 mg/dL
- TC [7]: 69.6 mg/dL
- TG [7]: 84.4 mg/dL
- TP [7]: 5.4 g/dL
- gamma-GTP [7]: 1.2 IU/L
- TERMINAL_BW (10 mg/kg, 3 h, dose level Low): 205.7 g
